Reference: ChEMBL document CHEMBL3593172, “4-(N-Phenyl-N'-substituted benzenesulfonyl)-6-(4-hydroxyphenyl)quinolines as inhibitors of mammalian target of rapamycin” (Bioorg Med Chem, 2015)

system: HL-60; test: Cytotoxicity against human HL60 cells assessed as growth inhibition at 10 uM after 24 to 48 hrs by MTT assay relative to control; format: functional; settings: read-out: GI

| Structure (SMILES) | inhibition of growth at 10 µM [%] |
| --- | --- |
| O=S(=O)(c1ccc(Br)cc1)N(c1ccccc1)c1ccnc2ccc(-c3ccc(O)cc3)cc12 | 69 |
| O=S(=O)(c1ccc2c(c1)OCCO2)N(c1ccccc1)c1ccnc2ccc(-c3ccc(O)cc3)cc12 | 87 |
| O=S(=O)(c1ccccc1)N(c1ccccc1)c1ccnc2ccc(-c3ccc(O)cc3)cc12 | 87 |

system: HL-60; test: Cytotoxicity against human HL60 cells assessed as growth inhibition at 30 uM after 24 to 48 hrs by MTT assay relative to control; format: functional; settings: read-out: GI

| Structure (SMILES) | inhibition of growth at 30 µM [%] |
| --- | --- |
| O=S(=O)(c1ccc(Br)cc1)N(c1ccccc1)c1ccnc2ccc(-c3ccc(O)cc3)cc12 | 88 |
| O=S(=O)(c1ccc2c(c1)OCCO2)N(c1ccccc1)c1ccnc2ccc(-c3ccc(O)cc3)cc12 | 90 |
| O=S(=O)(c1ccccc1)N(c1ccccc1)c1ccnc2ccc(-c3ccc(O)cc3)cc12 | 89 |

system: HL-60; test: Cytotoxicity against human HL60 cells assessed as growth inhibition at 100 uM after 24 to 48 hrs by MTT assay relative to control; format: functional; settings: read-out: GI

| Structure (SMILES) | inhibition of growth at 100 µM [%] |
| --- | --- |
| O=S(=O)(c1ccc(Br)cc1)N(c1ccccc1)c1ccnc2ccc(-c3ccc(O)cc3)cc12 | 87 |
| O=S(=O)(c1ccc2c(c1)OCCO2)N(c1ccccc1)c1ccnc2ccc(-c3ccc(O)cc3)cc12 | 90 |
| O=S(=O)(c1ccccc1)N(c1ccccc1)c1ccnc2ccc(-c3ccc(O)cc3)cc12 | 91 |

system: not listed separately; test: Cytotoxicity against human MIAPaCa2 cells assessed as growth inhibition at 10 uM after 24 to 48 hrs by MTT assay relative to control; format: functional; settings: MIA PaCa-2, read-out: GI

| Structure (SMILES) | inhibition of growth at 10 µM [%] |
| --- | --- |
| O=S(=O)(c1ccc(Br)cc1)N(c1ccccc1)c1ccnc2ccc(-c3ccc(O)cc3)cc12 | 27 |
| O=S(=O)(c1ccc2c(c1)OCCO2)N(c1ccccc1)c1ccnc2ccc(-c3ccc(O)cc3)cc12 | 79 |
| O=S(=O)(c1ccccc1)N(c1ccccc1)c1ccnc2ccc(-c3ccc(O)cc3)cc12 | 80 |

system: not listed separately; test: Cytotoxicity against human MIAPaCa2 cells assessed as growth inhibition at 30 uM after 24 to 48 hrs by MTT assay relative to control; format: functional; settings: MIA PaCa-2, read-out: GI

| Structure (SMILES) | inhibition of growth at 30 µM [%] |
| --- | --- |
| O=S(=O)(c1ccc(Br)cc1)N(c1ccccc1)c1ccnc2ccc(-c3ccc(O)cc3)cc12 | 76 |
| O=S(=O)(c1ccc2c(c1)OCCO2)N(c1ccccc1)c1ccnc2ccc(-c3ccc(O)cc3)cc12 | 84 |
| O=S(=O)(c1ccccc1)N(c1ccccc1)c1ccnc2ccc(-c3ccc(O)cc3)cc12 | 84 |

system: not listed separately; test: Cytotoxicity against human MIAPaCa2 cells assessed as growth inhibition at 100 uM after 24 to 48 hrs by MTT assay relative to control; format: functional; settings: MIA PaCa-2, read-out: GI

| Structure (SMILES) | inhibition of growth at 100 µM [%] |
| --- | --- |
| O=S(=O)(c1ccc(Br)cc1)N(c1ccccc1)c1ccnc2ccc(-c3ccc(O)cc3)cc12 | 81 |
| O=S(=O)(c1ccc2c(c1)OCCO2)N(c1ccccc1)c1ccnc2ccc(-c3ccc(O)cc3)cc12 | 86 |
| O=S(=O)(c1ccccc1)N(c1ccccc1)c1ccnc2ccc(-c3ccc(O)cc3)cc12 | 87 |

system: HCT-116; test: Cytotoxicity against human HCT116 cells assessed as growth inhibition at 10 uM after 24 to 48 hrs by MTT assay relative to control; format: functional; settings: read-out: GI

| Structure (SMILES) | inhibition of growth at 10 µM [%] |
| --- | --- |
| O=S(=O)(c1ccc(Br)cc1)N(c1ccccc1)c1ccnc2ccc(-c3ccc(O)cc3)cc12 | 9 |
| O=S(=O)(c1ccc2c(c1)OCCO2)N(c1ccccc1)c1ccnc2ccc(-c3ccc(O)cc3)cc12 | 17 |
| O=S(=O)(c1ccccc1)N(c1ccccc1)c1ccnc2ccc(-c3ccc(O)cc3)cc12 | 8 |

system: HCT-116; test: Cytotoxicity against human HCT116 cells assessed as growth inhibition at 30 uM after 24 to 48 hrs by MTT assay relative to control; format: functional; settings: read-out: GI

| Structure (SMILES) | inhibition of growth at 30 µM [%] |
| --- | --- |
| O=S(=O)(c1ccc(Br)cc1)N(c1ccccc1)c1ccnc2ccc(-c3ccc(O)cc3)cc12 | 23 |
| O=S(=O)(c1ccc2c(c1)OCCO2)N(c1ccccc1)c1ccnc2ccc(-c3ccc(O)cc3)cc12 | 26 |
| O=S(=O)(c1ccccc1)N(c1ccccc1)c1ccnc2ccc(-c3ccc(O)cc3)cc12 | 57 |

system: HCT-116; test: Cytotoxicity against human HCT116 cells assessed as growth inhibition at 100 uM after 24 to 48 hrs by MTT assay relative to control; format: functional; settings: read-out: GI

| Structure (SMILES) | inhibition of growth at 100 µM [%] |
| --- | --- |
| O=S(=O)(c1ccc(Br)cc1)N(c1ccccc1)c1ccnc2ccc(-c3ccc(O)cc3)cc12 | 73 |
| O=S(=O)(c1ccc2c(c1)OCCO2)N(c1ccccc1)c1ccnc2ccc(-c3ccc(O)cc3)cc12 | 68 |
| O=S(=O)(c1ccccc1)N(c1ccccc1)c1ccnc2ccc(-c3ccc(O)cc3)cc12 | 89 |

system: HepG2; test: Cytotoxicity against human HepG2 cells assessed as growth inhibition at 10 uM after 24 to 48 hrs by MTT assay relative to control; format: functional; settings: read-out: GI

| Structure (SMILES) | inhibition of growth at 10 µM [%] |
| --- | --- |
| O=S(=O)(c1ccc(Br)cc1)N(c1ccccc1)c1ccnc2ccc(-c3ccc(O)cc3)cc12 | 1 |
| O=S(=O)(c1ccc2c(c1)OCCO2)N(c1ccccc1)c1ccnc2ccc(-c3ccc(O)cc3)cc12 | 46 |
| O=S(=O)(c1ccccc1)N(c1ccccc1)c1ccnc2ccc(-c3ccc(O)cc3)cc12 | 40 |

system: HepG2; test: Cytotoxicity against human HepG2 cells assessed as growth inhibition at 30 uM after 24 to 48 hrs by MTT assay relative to control; format: functional; settings: read-out: GI

| Structure (SMILES) | inhibition of growth at 30 µM [%] |
| --- | --- |
| O=S(=O)(c1ccc(Br)cc1)N(c1ccccc1)c1ccnc2ccc(-c3ccc(O)cc3)cc12 | 73 |
| O=S(=O)(c1ccc2c(c1)OCCO2)N(c1ccccc1)c1ccnc2ccc(-c3ccc(O)cc3)cc12 | 87 |
| O=S(=O)(c1ccccc1)N(c1ccccc1)c1ccnc2ccc(-c3ccc(O)cc3)cc12 | 90 |

system: HepG2; test: Cytotoxicity against human HepG2 cells assessed as growth inhibition at 100 uM after 24 to 48 hrs by MTT assay relative to control; format: functional; settings: read-out: GI

| Structure (SMILES) | inhibition of growth at 100 µM [%] |
| --- | --- |
| O=S(=O)(c1ccc(Br)cc1)N(c1ccccc1)c1ccnc2ccc(-c3ccc(O)cc3)cc12 | 80 |
| O=S(=O)(c1ccc2c(c1)OCCO2)N(c1ccccc1)c1ccnc2ccc(-c3ccc(O)cc3)cc12 | 88 |
| O=S(=O)(c1ccccc1)N(c1ccccc1)c1ccnc2ccc(-c3ccc(O)cc3)cc12 | 91 |

system: PC-3; test: Cytotoxicity against human PC3 cells assessed as growth inhibition at 10 uM after 24 to 48 hrs by MTT assay relative to control; format: functional; settings: read-out: GI

| Structure (SMILES) | inhibition of growth at 10 µM [%] |
| --- | --- |
| O=S(=O)(c1ccc(Br)cc1)N(c1ccccc1)c1ccnc2ccc(-c3ccc(O)cc3)cc12 | 15 |
| O=S(=O)(c1ccc2c(c1)OCCO2)N(c1ccccc1)c1ccnc2ccc(-c3ccc(O)cc3)cc12 | 27 |
| O=S(=O)(c1ccccc1)N(c1ccccc1)c1ccnc2ccc(-c3ccc(O)cc3)cc12 | 15 |

system: PC-3; test: Cytotoxicity against human PC3 cells assessed as growth inhibition at 30 uM after 24 to 48 hrs by MTT assay relative to control; format: functional; settings: read-out: GI

| Structure (SMILES) | inhibition of growth at 30 µM [%] |
| --- | --- |
| O=S(=O)(c1ccc(Br)cc1)N(c1ccccc1)c1ccnc2ccc(-c3ccc(O)cc3)cc12 | 28 |
| O=S(=O)(c1ccc2c(c1)OCCO2)N(c1ccccc1)c1ccnc2ccc(-c3ccc(O)cc3)cc12 | 38 |
| O=S(=O)(c1ccccc1)N(c1ccccc1)c1ccnc2ccc(-c3ccc(O)cc3)cc12 | 61 |

system: PC-3; test: Cytotoxicity against human PC3 cells assessed as growth inhibition at 100 uM after 24 to 48 hrs by MTT assay relative to control; format: functional; settings: read-out: GI

| Structure (SMILES) | inhibition of growth at 100 µM [%] |
| --- | --- |
| O=S(=O)(c1ccc(Br)cc1)N(c1ccccc1)c1ccnc2ccc(-c3ccc(O)cc3)cc12 | 25 |
| O=S(=O)(c1ccc2c(c1)OCCO2)N(c1ccccc1)c1ccnc2ccc(-c3ccc(O)cc3)cc12 | 62 |
| O=S(=O)(c1ccccc1)N(c1ccccc1)c1ccnc2ccc(-c3ccc(O)cc3)cc12 | 76 |

system: HL-60; test: cells; settings: Homo sapiens, HL-60, 48 h
Description: Cytotoxicity against human HL60 cells assessed as inhibition of cell proliferation after 48 hrs by MTT assay

| Structure (SMILES) | IC50 [µM] |
| --- | --- |
| O=S(=O)(c1ccc(Br)cc1)N(c1ccccc1)c1ccnc2ccc(-c3ccc(O)cc3)cc12 | < 10 |
| O=S(=O)(c1ccc2c(c1)OCCO2)N(c1ccccc1)c1ccnc2ccc(-c3ccc(O)cc3)cc12 | < 10 |
| O=S(=O)(c1ccccc1)N(c1ccccc1)c1ccnc2ccc(-c3ccc(O)cc3)cc12 | < 10 |

system: not listed separately; test: cells; settings: Homo sapiens, MIA PaCa-2, 48 h
Description: Cytotoxicity against human MIAPaCa2 cells assessed as inhibition of cell proliferation after 48 hrs by MTT assay

| Structure (SMILES) | IC50 [µM] |
| --- | --- |
| O=S(=O)(c1ccc(Br)cc1)N(c1ccccc1)c1ccnc2ccc(-c3ccc(O)cc3)cc12 | 20 |
| O=S(=O)(c1ccc2c(c1)OCCO2)N(c1ccccc1)c1ccnc2ccc(-c3ccc(O)cc3)cc12 | < 10 |
| O=S(=O)(c1ccccc1)N(c1ccccc1)c1ccnc2ccc(-c3ccc(O)cc3)cc12 | < 10 |

system: HCT-116; test: cells; settings: Homo sapiens, HCT-116, 48 h
Description: Cytotoxicity against human HCT116 cells assessed as inhibition of cell proliferation after 48 hrs by MTT assay

| Structure (SMILES) | IC50 [µM] |
| --- | --- |
| O=S(=O)(c1ccc(Br)cc1)N(c1ccccc1)c1ccnc2ccc(-c3ccc(O)cc3)cc12 | 68 |
| O=S(=O)(c1ccc2c(c1)OCCO2)N(c1ccccc1)c1ccnc2ccc(-c3ccc(O)cc3)cc12 | 70 |
| O=S(=O)(c1ccccc1)N(c1ccccc1)c1ccnc2ccc(-c3ccc(O)cc3)cc12 | 28 |

system: HepG2; test: cells; settings: Homo sapiens, HepG2, 48 h
Description: Cytotoxicity against human HepG2 cells assessed as inhibition of cell proliferation after 48 hrs by MTT assay

| Structure (SMILES) | IC50 [µM] |
| --- | --- |
| O=S(=O)(c1ccc(Br)cc1)N(c1ccccc1)c1ccnc2ccc(-c3ccc(O)cc3)cc12 | 22 |
| O=S(=O)(c1ccc2c(c1)OCCO2)N(c1ccccc1)c1ccnc2ccc(-c3ccc(O)cc3)cc12 | 12 |
| O=S(=O)(c1ccccc1)N(c1ccccc1)c1ccnc2ccc(-c3ccc(O)cc3)cc12 | 12 |

system: PC-3; test: cells; settings: Homo sapiens, PC-3, 48 h
Description: Cytotoxicity against human PC3 cells assessed as inhibition of cell proliferation after 48 hrs by MTT assay

| Structure (SMILES) | IC50 [µM] |
| --- | --- |
| O=S(=O)(c1ccc(Br)cc1)N(c1ccccc1)c1ccnc2ccc(-c3ccc(O)cc3)cc12 | > 100 |
| O=S(=O)(c1ccc2c(c1)OCCO2)N(c1ccccc1)c1ccnc2ccc(-c3ccc(O)cc3)cc12 | 65 |
| O=S(=O)(c1ccccc1)N(c1ccccc1)c1ccnc2ccc(-c3ccc(O)cc3)cc12 | 25 |
